No end group written: not given here. *: point of attachment. sulfate = O=S(=O)(O)*
Legend:
KG-1 cells = experiment: AML KG-1 model in NOD/SCID mice; format: in vivo
Method: The in vivo mouse model for human AML uses SCID/NOD mice (Jackson Laboratories) inoculated with KG-1 cells derived from a human AML cell line.
In a first experiment, NOD/SCID mice were pretreated with 100 mg/kg CYTOXAN®. Four days post CYTOXAN® injection, KG-1 cells were injected intravenously into the tail vein of six groups of mice. (Table N, Groups 2 and 5-9). One group of mice (Table N, Group 1) was injected with PBS alone (control). [273.][273.]
Beginning 19 days post KG-1 injection mice were treated with: CONY1, Doxorubicin, CONY1-Doxorubicin conjugate, or Mylotarg®. (Mylotarg® is a monoclonal antibody (anti CD33) conjugated chemically to calcheamicin recently approved by the FDA for treatment of AML patients age 60 and over in a first relapse.) Mice were treated once or three times per week for three weeks. One group (group 2) of KG-1 inoculated mice were left untreated. (Table N). Two other groups of mice (groups 3 and 4) were injected with KG-1 cells that were previously incubated with CONY1 or 181-scFv (a negative, non-specific control antibody) in serum free RPMI containing 1% BSA at 4° C. for 1 h. The antibodies were used at a concentration of 0.25 mg scFv/10^8 cells (75 μg/mouse). Before injection into the mice the preincubated KG-1 cells were washed and resuspended in RPMI. The KG-1 cells in RPMI were inoculated into mice at a concentration of 75 μg scFv/0.2 ml RPMI per mouse. Group 3 mice were inoculated with KG-1+CONY1, and group 4 mice were inoculated with KG-1+181-scFv. (Table N). This treatment (group 3 and 4) was carried out one day after the inoculation of groups 1-2 and 5-9, i.e., at five days after CYTOXAN injection.
Mice were sacrificed from 60 to 65 days post cell injection. Bone marrow and blood samples were analyzed by flow cytometry using mouse anti human CD34-FITC (IQP 144F) (or anti CD44-FITC (MCA89F, Serotec)) and Y1-Biotin/SAV-PE. Mouse IgG1-FITC (IQP 191-F) was used as an isotype control, and mouse IgG2a-FITC (MCA929F, Serotec) was used as a negative control. Flow cytometry was performed using FACSCalibur system and CellQwest software, Becton Dickinson.
An additional experiment was performed in which SCID-NOD mice were i.v. injected with 3×10^4 MOLT-4 cells/mouse 5 days post treatment with cyclophosphamide. Anti-cancer agents or PBS were injected IV three times/week, from day 14 onward. On day 60, blood was drawn, then the animals were sacrificed. Bone marrow was extracted and analyzed by FACS analysis using a commercially available antiCD44 antibody for the detection of MOLT-4 cells in the mice bone marrow cell population.

[1] = tested on: scFv Y1 binding to glycocalicin; experiment: Competitive binding ELISA of sulfated peptides (scFv Y1 binding to immobilized glycocalicin); design: species or system human; conditions: peptide 1, 10 and 100 μM, preincubated 10 minutes with scFv Y1
Method: A competitive binding ELISA assay was used to assess the importance of the presence and position of sulfated tyrosines to the binding of peptides to Y1.
Glycocalicin was immobilized on a Maxisorb plate. scFv Y1 was preincubated with a peptide of interest for 10 minutes at three different concentrations (1, 10 and 100 μM) in order to observe a dose response. (Table 12). After preincubation, the mixture (Y1+peptide) was added to the plate, and binding of scFv Y1 was assessed using polyclonal rabbit anti-VL, which recognizes the VL chain of scFv Y1, followed by anti-rabbit-HRP. In mixtures in which the peptide bound to scFv Y1, a decrease in the binding of scFv Y1 to glycocalicin compared to control binding was observed.

COc1cccc2c1C(=O)c1c(O)c3c(c(O)c1C2=O)C[C@@](O)(C(=O)CO)C[C@@H]3O[C@H]1C[C@H](N)[C@H](O)[C@H](C)O1 [Doxorubicin]
percentage of KG-1 cells in bone marrow compared to group 2 (untreated) (KG-1 cells; 0.1 mg/kg free Doxorubicin, 3 times per week (group 6)): statistically significant (p<0.05) lower percentage of KG-1 cells | mice that died within three weeks after treatment initiation (KG-1 cells; 5 mg/kg free Doxorubicin, 1 time per week (group 7)): Nine out of 10 | reduction in the number of tumor cells in the bone marrow (KG-1 cells; additional experiment, day 60, Doxorubicin alone or as conjugate 75 μg/mouse): 50%

GDEGDTDLY*DY*Y*PEEDTE (GDEGDTDLY(sulfate)DY(sulfate)Y(sulfate)PEEDTE) [G-Y*Y*Y*, GPIbα peptide, sulfated]
inhibition of Y1 binding to glycocalicin [1]: did inhibit

Mylotarg: monoclonal antibody (anti CD33) conjugated chemically to calcheamicin
KG-1 cells in bone marrow (KG-1 cells; 0.2 mg/kg, 1 time per week (group 9)): free of KG 1 cells | prevalence of bone marrow cancer, day 60 (KG-1 cells; additional experiment, 7 μg/mouse, once a week): completely inhibited

QATEYEY*LDY*DFLPETE (QATEYEY(sulfate)LDY(sulfate)DFLPETE) [P-YY*Y*, PSGL-1 n-terminus peptide, sulfated]
inhibition of Y1 binding to glycocalicin [1]: best inhibitors
